Measurements: EP0218688B1, “DIHALO-STATINE SUBSTITUTED RENIN INHIBITORS” (THE UPJOHN COMPANY, priority 1985, dated 1986)

Target: T1, renin (Homo sapiens, UniProt P00797)
T1 construct: Lyophilized human plasma with 0.1% EDTA is obtained from New England Nuclear; tissue New England Nuclear Plasma Renin Activity Control; host or cells: human plasma (lyophilized, reconstituted)
T1 sequence (P00797 67-406): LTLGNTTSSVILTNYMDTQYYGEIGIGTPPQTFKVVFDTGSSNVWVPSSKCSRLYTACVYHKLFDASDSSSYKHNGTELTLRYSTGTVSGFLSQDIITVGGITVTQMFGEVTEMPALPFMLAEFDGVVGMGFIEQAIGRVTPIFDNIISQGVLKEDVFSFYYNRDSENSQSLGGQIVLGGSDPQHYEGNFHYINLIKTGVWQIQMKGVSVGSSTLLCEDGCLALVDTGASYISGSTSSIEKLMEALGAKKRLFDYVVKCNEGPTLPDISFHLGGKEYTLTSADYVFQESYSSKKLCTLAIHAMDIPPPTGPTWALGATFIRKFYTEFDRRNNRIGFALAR
Test: GAMMACOAT plasma renin activity (PRA) radioimmunoassay, inhibition of angiotensin I generation in reconstituted human plasma
Assay type: biochemical
Details: I50 of RIP compared with I50 of the compound, RIP value of the same assay day
Method: Lyophilized human plasma with 0.1% EDTA is obtained from New England Nuclear, North Billerica, Massachusetts 01862 as "Plasma Renin Activity Control". This lyophilized plasma is reconstituted, on the day of the assay, with cold sterile distilled water according to directions on the vial. The plasma renin activity (PRA) of the reconstituted plasma is assayed with "GAMMACOAT [^125 Plasma Renin Activity Radioimmunoassay Kit" supplied by Clinical Assays, a Division of Travenol Laboratories, Inc., Cambridge, Massachusetts 02139. The procedure used with these kits is carried out essentially as described in the literature which accompanies them. […]
In the case of renin inhibitory peptide (RIP), […] of the 4°C. blank is added to a GAMMACOAT® tube. […] The tubes are then counted in a gamma counter. The results of the RIP are evaluated with the Rodbard Radioimmunoassay Program and the plasma renin activity (PRA) is expressed as […]. […] In addition to l50 values, relative potencies are also calculated. A relative potency is determined by comparing the 150 of RIP to the l50 of the compound. However, it must be emphasized that relative potencies are calculated from the l50 obtained for RIP on the day the compound is assayed and not from the average 15o for RIP.

In the case of `CC[C@H](C)[C@H](NC(=O)C(F)(F)C(=O)C(CC(C)C)NC(=O)[C@H](Cc1c[nH]cn1)NC(=O)[C@H](Cc1ccccc1)NC(=O)OC(C)(C)C)C(=O)NCc1ccccn1` (stereo partly drawn) [N-tert-Butyloxycarbonyl-L-phenylalanyl-L-histidyl-2,2-difluoro-statonyl-L-isoleucyl-2-pyridylmethylamide], the relative potency is reported as 6100.
`CC[C@H](C)[C@H](NC(=O)C(F)(F)[C@H](O)[C@H](CC(C)C)NC(=O)[C@H](Cc1c[nH]cn1)NC(=O)[C@H](Cc1ccccc1)NC(=O)OC(C)(C)C)C(=O)NCc1ccccn1` [N-tert-Butyloxycarbonyl-L-phenylalanyl-L-histidyl-2,2-difluoro-statyl-L-isoleucyl-2-pyridylmethylamide] was tested, and the relative potency was 1,000.
